Molecules are shown by their SMILES. pIC50: −log10 of the molar value.

The first assay has as its target T1, Alpha-1B adrenergic receptor (Rattus norvegicus, UniProt P15823).
T1 sequence (P15823 whole entry): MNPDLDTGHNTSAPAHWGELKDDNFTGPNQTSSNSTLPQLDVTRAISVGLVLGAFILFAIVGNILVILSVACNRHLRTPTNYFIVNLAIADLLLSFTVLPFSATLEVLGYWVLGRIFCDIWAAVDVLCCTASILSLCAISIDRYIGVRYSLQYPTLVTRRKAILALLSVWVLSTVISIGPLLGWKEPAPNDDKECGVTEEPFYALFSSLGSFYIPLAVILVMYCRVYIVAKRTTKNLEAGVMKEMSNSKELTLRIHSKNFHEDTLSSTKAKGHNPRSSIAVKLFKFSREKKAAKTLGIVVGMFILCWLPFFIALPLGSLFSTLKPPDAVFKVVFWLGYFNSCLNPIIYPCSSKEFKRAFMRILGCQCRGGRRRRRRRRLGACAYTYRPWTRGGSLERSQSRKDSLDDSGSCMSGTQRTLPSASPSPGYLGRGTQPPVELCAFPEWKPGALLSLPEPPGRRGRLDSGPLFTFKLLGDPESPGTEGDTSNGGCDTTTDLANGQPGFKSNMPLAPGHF
Nature of the assay: DRUGMATRIX: Alpha-1B adrenergic receptor radioligand binding (ligand: prazosin). The assay is classed as cell membranes, Wistar, Liver, Membrane. As to conditions: Not Active = under 50% inhibition at 10 µM.
For `NC(=O)NO` [HYDROXYUREA], the IC50 entry is reported as “Not Active”.

Consider `CCc1c2c(nc3ccc(OC(=O)N4CCC(N5CCCCC5)CC4)cc13)-c1cc3c(c(=O)n1C2)COC(=O)[C@]3(O)CC` [IRINOTECAN], for which the IC50 result is “Not Active”.

`Nc1ccn([C@@H]2CS[C@H](CO)O2)c(=O)n1` [LAMIVUDINE]: the IC50 result is reported as “Not Active”.

In a further assay the target is T2, Thromboxane-A synthase (Homo sapiens, UniProt P24557).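 Further: enzyme inhibition assay with PGH2 supplied as substrate; in other assays of this panel Not Active means under 50% inhibition at 10 µM.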
T2 sequence (P24557 whole entry): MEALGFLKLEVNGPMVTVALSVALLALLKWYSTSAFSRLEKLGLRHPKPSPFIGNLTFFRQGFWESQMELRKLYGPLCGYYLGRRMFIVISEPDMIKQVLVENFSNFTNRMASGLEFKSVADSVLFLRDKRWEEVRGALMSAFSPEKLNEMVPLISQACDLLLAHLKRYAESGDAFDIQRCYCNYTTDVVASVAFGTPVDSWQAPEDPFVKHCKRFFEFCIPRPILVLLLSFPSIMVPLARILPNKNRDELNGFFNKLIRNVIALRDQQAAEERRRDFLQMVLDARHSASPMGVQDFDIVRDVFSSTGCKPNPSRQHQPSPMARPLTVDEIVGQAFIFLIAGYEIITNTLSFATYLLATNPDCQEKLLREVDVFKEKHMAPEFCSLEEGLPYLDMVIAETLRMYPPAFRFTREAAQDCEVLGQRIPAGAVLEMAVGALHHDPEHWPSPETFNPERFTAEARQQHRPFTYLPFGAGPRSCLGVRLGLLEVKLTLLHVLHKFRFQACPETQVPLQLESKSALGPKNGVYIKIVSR
Nature of the assay: biochemical. The assay is classed as tissue-based, Platelet. As to conditions: platelet.
Regarding `NC(=O)NO` [HYDROXYUREA], the IC50 result is given as “Not Active”.

As to `CCc1c2c(nc3ccc(OC(=O)N4CCC(N5CCCCC5)CC4)cc13)-c1cc3c(c(=O)n1C2)COC(=O)[C@]3(O)CC` [IRINOTECAN], the IC50 result was “Not Active”.

As to `Nc1ccn([C@@H]2CS[C@H](CO)O2)c(=O)n1` [LAMIVUDINE], the IC50 result is given as “Not Active”.

The target in another assay is Prostaglandin G/H synthase 1 (Homo sapiens, UniProt P23219). Nature of the assay: biochemical. The assay is classed as tissue-based, Platelet. Particulars: platelet.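 Further: inhibition of COX-1 enzyme activity, with arachidonic acid supplied as substrate; in other assays of this panel Not Active means under 50% inhibition at 10 µM.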
Sequence of Prostaglandin G/H synthase 1 (P23219 whole entry): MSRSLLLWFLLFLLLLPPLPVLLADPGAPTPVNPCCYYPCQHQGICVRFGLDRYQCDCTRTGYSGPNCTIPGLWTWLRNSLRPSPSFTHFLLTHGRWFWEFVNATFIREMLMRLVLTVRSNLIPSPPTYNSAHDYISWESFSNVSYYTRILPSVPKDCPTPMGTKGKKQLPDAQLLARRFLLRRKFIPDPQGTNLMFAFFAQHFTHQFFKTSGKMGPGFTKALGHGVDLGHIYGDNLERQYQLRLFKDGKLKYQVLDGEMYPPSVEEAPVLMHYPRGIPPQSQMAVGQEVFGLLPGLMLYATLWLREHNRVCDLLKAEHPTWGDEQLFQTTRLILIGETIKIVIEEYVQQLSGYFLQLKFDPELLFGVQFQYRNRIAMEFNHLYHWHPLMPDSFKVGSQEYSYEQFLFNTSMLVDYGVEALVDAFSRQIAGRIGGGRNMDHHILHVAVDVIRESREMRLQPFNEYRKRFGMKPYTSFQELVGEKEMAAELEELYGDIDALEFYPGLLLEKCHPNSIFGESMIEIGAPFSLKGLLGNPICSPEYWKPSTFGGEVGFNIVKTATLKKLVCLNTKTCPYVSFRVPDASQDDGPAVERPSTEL
Turning to `NC(=O)NO` [HYDROXYUREA], the IC50 result is given as “Not Active”.

As to `CCc1c2c(nc3ccc(OC(=O)N4CCC(N5CCCCC5)CC4)cc13)-c1cc3c(c(=O)n1C2)COC(=O)[C@]3(O)CC` [IRINOTECAN], the IC50 entry is on record as “Not Active”.

Take `Nc1ccn([C@@H]2CS[C@H](CO)O2)c(=O)n1` [LAMIVUDINE]: the IC50 entry is reported as “Not Active”.

The next assay addresses Glycine receptor (Rattus norvegicus, UniProt P22771+P24524+P07727+P20781).
Experiment: not given
Details: not given
The assay is classed as cell membranes, Wistar, Spinal cord, Membrane.
For `NC(=O)NO` [HYDROXYUREA], the IC50 entry is recorded as “Not Active”.

With `CCc1c2c(nc3ccc(OC(=O)N4CCC(N5CCCCC5)CC4)cc13)-c1cc3c(c(=O)n1C2)COC(=O)[C@]3(O)CC` [IRINOTECAN], the IC50 entry is reported as “Not Active”.

Regarding `Nc1ccn([C@@H]2CS[C@H](CO)O2)c(=O)n1` [LAMIVUDINE], the IC50 entry is “Not Active”.

A further assay concerns the target T3, Cathepsin G (Homo sapiens, UniProt P08311).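 Further: inhibition of Cathepsin G enzyme activity, tested on an AMC-conjugated peptide substrate; in other assays of this panel Not Active means under 50% inhibition at 10 µM.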
T3 sequence (P08311 whole entry): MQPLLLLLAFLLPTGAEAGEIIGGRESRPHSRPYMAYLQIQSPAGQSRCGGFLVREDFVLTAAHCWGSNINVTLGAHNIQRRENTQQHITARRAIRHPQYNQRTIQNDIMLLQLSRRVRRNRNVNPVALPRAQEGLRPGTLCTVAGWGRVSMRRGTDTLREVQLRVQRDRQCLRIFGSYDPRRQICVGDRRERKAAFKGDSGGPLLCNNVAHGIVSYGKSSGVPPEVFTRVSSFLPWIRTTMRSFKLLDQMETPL
Experiment: not given
The assay is classed as tissue-based. Particulars: neutrophil.
`NC(=O)NO` [HYDROXYUREA]: the IC50 result was “Not Active”.

For the compound `CCc1c2c(nc3ccc(OC(=O)N4CCC(N5CCCCC5)CC4)cc13)-c1cc3c(c(=O)n1C2)COC(=O)[C@]3(O)CC` [IRINOTECAN], the IC50 result was “Not Active”.

Take `Nc1ccn([C@@H]2CS[C@H](CO)O2)c(=O)n1` [LAMIVUDINE]: the IC50 result is on record as “Not Active”.

Another assay concerns the target T4, Interstitial collagenase (Homo sapiens, UniProt P03956).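 Further: MMP-1 enzyme inhibition assay using a peptide substrate; in other assays of this panel Not Active means under 50% inhibition at 10 µM.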
T4 sequence (P03956 whole entry): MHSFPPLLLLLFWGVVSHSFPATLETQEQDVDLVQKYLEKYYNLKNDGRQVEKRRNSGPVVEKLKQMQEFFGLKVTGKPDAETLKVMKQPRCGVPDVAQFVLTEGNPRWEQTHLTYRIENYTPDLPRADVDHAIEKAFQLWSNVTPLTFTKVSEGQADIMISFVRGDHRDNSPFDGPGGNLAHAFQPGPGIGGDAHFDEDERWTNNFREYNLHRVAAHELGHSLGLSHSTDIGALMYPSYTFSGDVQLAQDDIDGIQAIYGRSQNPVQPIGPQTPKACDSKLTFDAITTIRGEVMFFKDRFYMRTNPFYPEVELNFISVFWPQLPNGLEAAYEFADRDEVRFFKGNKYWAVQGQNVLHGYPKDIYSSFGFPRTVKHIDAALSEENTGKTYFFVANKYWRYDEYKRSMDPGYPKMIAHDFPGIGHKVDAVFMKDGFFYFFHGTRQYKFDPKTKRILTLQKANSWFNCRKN
Put plainly: biochemical.
Details: not given
The assay is classed as tissue-based, Rheumatoid synovial fibroblasts.
Take `NC(=O)NO` [HYDROXYUREA]: the IC50 result was “Not Active”.

For `Nc1ccn([C@@H]2CS[C@H](CO)O2)c(=O)n1` [LAMIVUDINE], the IC50 entry is listed as “Not Active”.

Staying with this assay, now noted: read-out: IC50.
Take `CCc1c2c(nc3ccc(OC(=O)N4CCC(N5CCCCC5)CC4)cc13)-c1cc3c(c(=O)n1C2)COC(=O)[C@]3(O)CC` [IRINOTECAN]: the pIC50 was 5.22.

The next assay addresses T5, Leukotriene C4 synthase (Cavia porcellus, UniProt A6XA80).
T5 sequence (A6XA80 whole entry): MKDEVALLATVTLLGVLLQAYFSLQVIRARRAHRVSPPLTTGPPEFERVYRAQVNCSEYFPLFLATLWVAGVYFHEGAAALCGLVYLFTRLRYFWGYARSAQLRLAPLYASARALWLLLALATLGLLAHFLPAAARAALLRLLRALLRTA
Experiment: not given
The assay is classed as tissue-based, Lung.
Details: not given
As to `NC(=O)NO` [HYDROXYUREA], the IC50 result is “Not Active”.

For `CCc1c2c(nc3ccc(OC(=O)N4CCC(N5CCCCC5)CC4)cc13)-c1cc3c(c(=O)n1C2)COC(=O)[C@]3(O)CC` [IRINOTECAN], the IC50 entry is listed as “Not Active”.

`Nc1ccn([C@@H]2CS[C@H](CO)O2)c(=O)n1` [LAMIVUDINE]: the IC50 entry is “Not Active”.

The target of another assay is T6, C-X-C chemokine receptor type 1 (Homo sapiens, UniProt P25024). Further: in other assays of this panel Not Active means under 50% inhibition at 10 µM.
T6 sequence (P25024 whole entry): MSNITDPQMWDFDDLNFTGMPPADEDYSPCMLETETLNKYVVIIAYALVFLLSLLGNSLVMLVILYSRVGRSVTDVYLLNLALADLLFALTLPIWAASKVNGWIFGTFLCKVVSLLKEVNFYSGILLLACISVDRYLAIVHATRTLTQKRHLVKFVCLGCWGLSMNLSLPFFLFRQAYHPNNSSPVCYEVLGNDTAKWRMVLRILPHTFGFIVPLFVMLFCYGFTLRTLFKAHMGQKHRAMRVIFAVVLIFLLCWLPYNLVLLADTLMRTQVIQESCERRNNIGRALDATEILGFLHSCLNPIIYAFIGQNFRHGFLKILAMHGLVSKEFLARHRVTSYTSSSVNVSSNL
Experiment: not given
Details: not given
For `NC(=O)NO` [HYDROXYUREA], the IC50 result is “Not Active”.

Consider `CCc1c2c(nc3ccc(OC(=O)N4CCC(N5CCCCC5)CC4)cc13)-c1cc3c(c(=O)n1C2)COC(=O)[C@]3(O)CC` [IRINOTECAN], for which the IC50 result is “Not Active”.

In the case of `Nc1ccn([C@@H]2CS[C@H](CO)O2)c(=O)n1` [LAMIVUDINE], the IC50 entry is “Not Active”.

For another assay, the target named is T7, Neutrophil elastase (Homo sapiens, UniProt P08246).
T7 sequence (P08246 whole entry): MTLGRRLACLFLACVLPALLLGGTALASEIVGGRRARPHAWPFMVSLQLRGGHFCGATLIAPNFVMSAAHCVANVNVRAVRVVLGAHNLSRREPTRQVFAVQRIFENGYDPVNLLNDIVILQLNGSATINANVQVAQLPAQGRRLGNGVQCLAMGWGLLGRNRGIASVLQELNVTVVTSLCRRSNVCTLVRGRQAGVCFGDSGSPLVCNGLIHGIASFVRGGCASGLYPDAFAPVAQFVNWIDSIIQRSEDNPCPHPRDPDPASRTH
Experiment: not given
The assay is classed as tissue-based.
Details: not given
As for `NC(=O)NO` [HYDROXYUREA], the IC50 entry is reported as “Not Active”.

Take `CCc1c2c(nc3ccc(OC(=O)N4CCC(N5CCCCC5)CC4)cc13)-c1cc3c(c(=O)n1C2)COC(=O)[C@]3(O)CC` [IRINOTECAN]: the IC50 result was “Not Active”.

`Nc1ccn([C@@H]2CS[C@H](CO)O2)c(=O)n1` [LAMIVUDINE]: the IC50 entry is given as “Not Active”.

These data come from ChEMBL document CHEMBL1909046, “DrugMatrix in vitro pharmacology data”.
